The values that follow come from patent publication US10865203B2, “Ligands selective to alpha 6 subunit-containing GABAA receptors and their methods of use” (UWM Research Foundation, Inc., priority 2015, dated 2020).

The nature of data set [1]: Microsomal stability assay, mouse liver microsomes. Type of data set: in vitro ADME. The following applies: for stability in Mouse liver microsomes: Table 2. The method in brief:
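Test compound at 10 μM was preincubated 5 min at 37 °C in phosphate buffer pH 7.4 with NADPH regenerating system, then started with human or mouse liver microsomes at 0.5 mg/mL protein. Samples were taken at 0–60 min and quenched in cold acetonitrile with internal standard. Slope k came from ln peak-area ratio versus time, three repeats in duplicate.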
A general note: Liver microsomes are a subcellular fraction often used to study metabolism.

Data set [2] deals with α1,4,6β3δ receptors. In words: Electrophysiology in Xenopus oocytes, delta-containing receptors. Type of data set: cell-based, rat. As to the method:
Mature female Xenopus laevis (Nasco, Fort Atkinson, Wis., USA) were anaesthetized in a bath of ice-cold 0.17% Tricain (Ethyl-m-aminobenzoat, Sigma-Aldrich, St. Louis, Mo., USA) before decapitation and transfer of the frog's ovary to ND96 medium (96 mM NaCl, 2 mM KCl, 1 mM MgCl2, 5 mM HEPES; pH 7.5). Following incubation in 1 mg/mL collagenase (Sigma-Aldrich, St. Louis, Mo., USA) for 30 min, stage 5 to 6 oocytes were singled out of the ovary and defolliculated using a platinum wire loop. Oocytes were stored and incubated at 18° C. in NDE medium (96 mM NaCl, 2 mM KCl, 1 mM MgCl2, 5 mM HEPES, 1.8 mM CaCl2; pH 7.5) that was supplemented with 100 U per mL-1 penicillin, 100 μg per mL-1 streptomycin and 2.5 mM pyruvate. Oocytes were injected with an aqueous solution of mRNA. A total of 2.5 ng of mRNA per oocyte was injected. Subunit ratio was 1:1:5 for αxβγ2 (x=1, 2, 3, 5) and 3:1:5 for α4/6β3γ2 and αβδ receptors. Injected oocytes were incubated for at least 36 h before electrophysiological recordings. Oocytes were placed on a nylon-grid in a bath of NDE medium. For current measurements, the oocytes were impaled with two microelectrodes (2-3MΩ), which were filled with 2 M KCl. The oocytes were constantly washed by a flow of 6 mL per min-1 NDE that could be switched to NDE containing GABA and/or drugs. […] All recordings were performed at room temperature at a holding potential of −60 mV using a Warner OC-725C TEV (Warner Instrument, Hamden, Conn., USA) or a Dagan CA-1B Oocyte Clamp or a Dagan TEV-200A TEV (Dagan Corporation, Mineapolis, Minn., USA). Data were digitized using a Digidata 1322A or 1550 data acquisition system (Axon Instruments, Union City, Calif., USA), recorded using Clampex 10.5 software (Molecular Devices, Sunnyvale, Calif., USA), and analyzed using Clampfit 10.5 and GraphPad Prism 6.0 (La Jolla, Calif., USA) software. Concentration-response data were fitted using the Hill equation. Data are given as mean±SEM from at least three oocytes of two batches.
For selected test compounds full dose response curves were recorded in α1-6β3γ2 receptors. For selected compounds, dose response curves in additional receptor subtypes (α1, 4, 6β3δ, α6β1, 2γ2, α1-6β3) were also obtained. For a wider panel of compounds, a two point screening pharmacology was obtained at 1 and 10 μM compound concentrations.

Data set [3] relates to METH-impaired PPI in C57/B6 mice. In words: PPI test, methamphetamine-impaired prepulse inhibition. Type of data set: in vivo, mouse. As to conditions: for rescue of METH-impaired PPI: mice, compound 10 mg/kg i.p. 15 min before METH 2 mg/kg i.p. As to the method:
All animal experiments conducted at NTU were approved by the Institutional Animal Care and Use Committee of College of Medicine, National Taiwan University. C57/B6 (8-10 weeks) mice were used for the PPI test and Wistar rats (8-9 weeks) were used in the migraine model. Animals were housed in an animal room with a 12-h light/12-h dark cycle and free access to food and water.
The PPI test was conducted with a PPI apparatus (SR-LAB, San Diego Instruments, San Diego, Calif.) consisting of a startle chamber equipped with various programming acoustic stimulations. After acclimation, the mouse was gently placed in the startle chamber for a 4 min acclimation period with a background noise of 65 dB, which continued throughout the whole PPI test session. One PPI test session consisted of 4 types of startle trials, including the trial with the startle pulse (115 dB) alone (PULSEALONE; 115 dB, 20 ms), two trials with the startle pulse paired with 71 and 77 dB prepulses, respectively (PREPULSE+PULSE; 71 dB+115 dB and 77 dB+115 dB), and the trial without stimulus (NOSTIM; background 65 dB only). A test session started and ended, respectively, with four NOSTIM trials and four PULSEALONE trials. In between, each of the four types of trials was presented 14 times randomly, that is, 56 trials were given in a test session. The intertrial interval was given randomly from 5 to 20 s. In the PREPULSE+PULSE trial, a 71 or 77 dB prepulse was given 120 ms before the 115 dBpulse. The magnitude of PPI (PPI %) was determined, after summarizing the startle responses in PULSEALONE and PREPULSE+PULSE trials, according to the equation (PULSEALON−PREPULSE+PULSE)/PULSEALONE×100%. The tested compound or vehicle was given to the animal for 15 min, followed by methamphetamine (2 mg/kg). The PPI test was conducted 10 min after injection of methamphetamine. Data were expressed as the mean±S.E.M. Statistical comparisons among groups were analyzed by ANOVA with Tukey post hoc test, and differences between groups were analyzed by Student's t-test. Two-way ANOVA with Bonferroni's post hoc test was used to analyze differences in the time courses of locomotor activity among groups. Differences were considered significant if P<0.05.
Methamphetamine and apomorphine were dissolved in normal saline for i.p. And s.c. Injections, respectively. Tested compounds and haloperidol, when given by i.p. Injection, were dissolved in a vehicle containing 20% dmso, 20% Cremophor® el (polyoxyethylene castor, sigma-aldrich) and 60% normal saline. Furosemide was dissolved (20 nmole/μL) in dimethylsulfoxide for intra-cerebellar microinjection the i.p. or s.c. Injection volume was 10 mL/kg.

[4] abbreviates: 10 μM test compound, 0.5 mg/mL protein, 37° C.

Each structure is given as a SMILES string. “Also recorded” adds a separate entry of the source. Like-named read-outs stand apart in the source and are kept apart here.

What is called half-life is how long it takes for the measured level to halve.

Take `COc1ccc(-n2nc3c4ccc(Br)cc4[nH]cc-3c2=O)cc1` [LAU 463, 7-Bromo-2-(4-methoxyphenyl)-2,5-dihydro-3H-pyrazolo[4,3-c]quinolin-3-one]: in data set [1] (setting [4]), the “% left after 1 hr. (MLM)” value is 69 ± 0.16% and the “Half-life (min) (MLM)” value is on record as 113.17 ± 5.15 min. The “α6 preference among α1,4,6β3δ receptors” value in data set [2] is reported as “α6 preference”. In addition, the “rescue of METH-impaired PPI” value in data set [3] is on record as “effective; also recorded: comparable rescue effect as Compound 6”.

With `[2H]C([2H])([2H])Oc1ccc(-n2nc3c4ccc(OC)cc4[nH]cc-3c2=O)cc1` [DK-I-56-1, 7-Methoxy-2-(4-methoxy-d3-phenyl)-2,5-dihydro-3H-pyrazolo[4,3-c]quinolin-3-one], in data set [1] (setting [4]), the “% left after 1 hr. (MLM)” value is 92.8 ± 0.09% and the “Half-life (min) (MLM)” value was determined as 628.8 ± 73 min. In addition, the “rescue of METH-impaired PPI” value in data set [3] is “effective”.

For the compound `[2H]C([2H])([2H])Oc1ccc2c3nn(-c4ccc(OC)nc4)c(=O)c-3c[nH]c2c1` [DK-I-86-1, 7-Methoxy-d3-2-(6-methoxypyridin-3-yl)-2,5-dihydro-3H-pyrazolo[4,3-c]quinolin-3-one], in data set [1] (setting [4]), the “% left after 1 hr. (MLM)” value is reported as 91.3 ± 0.12% and the “Half-life (min) (MLM)” value was determined as 550.6 ± 78 min. In addition, in data set [1] (mouse liver microsomes), the “higher stability compared to non-Deuterated (DK-II-13-1)” value is on record as roughly 20%.

For the compound `COc1ccc(-n2nc3c4ccc(OC)cc4[nH]cc-3c2=O)cc1` [Compound 6, 7-Methoxy-2-(4-methoxyphenyl)-2,5-dihydro-3H-pyrazolo[4,3-c]quinolin-3-one], the “% left after 1 hr. (MLM)” value in data set [1] (setting [4]) was 80.35 ± 0.14%. In data set [1], the “stability in Mouse liver microsomes” value was determined as 80%. In addition, the half-life at 10 μM in data set [1] (mouse, liver microsomes, pH 7.4, 10 μM test compound, 0.5 mg/mL protein, 37° C., read-out: Half-life (min) (MLM)) stood at 194 ± 11.4 min. Also, the “α6 preference among α1,4,6β3δ receptors” value in data set [2] is “α6 preference”; in data set [2] (listed as compound 6), “preferentially modulate the α6β3δ receptor”. Also, in data set [3] (furosemide 10 nmol intra-cerebellar microinjection), the “effect of intra-cerebellar furosemide on the rescue of PPI” value is given as “prevented”. For the same compound, the “rescue of METH-impaired PPI” value was “effectively rescued” in data set [3], “significantly rescued” in data set [3] (listed as C6) and “effective; also recorded: significantly rescued” in data set [3] (listed as compound 6).

As to `COc1cccc(-n2nc3c4cc(Cl)ccc4[nH]cc-3c2=O)c1` [LAU 159, 8-Chloro-2-(3-methoxyphenyl)-2,5-dihydro-3H-pyrazolo[4,3-c]quinolin-3-one], in data set [1] (setting [4]), the “% left after 1 hr. (MLM)” value is 59.83 ± 0.23% and the “Half-life (min) (MLM)” value is reported as 89.07 ± 5.22 min. Further, the “stability in Mouse liver microsomes” value in data set [1] is roughly 60%. Moreover, the “α6 preference among α1,4,6β3δ receptors” value in data set [2] is “preferentially modulate the α6β3δ receptor; also recorded: α6 preference”. Also, the “rescue of METH-impaired PPI” value in data set [3] is given as “effective; also recorded: comparable rescue effect as Compound 6”.
